Assay results reported in patent US12582616B2, “Molecular targets for modulation of dissociative and associative states” (The Board of Trustees of the Leland Stanford Junior …, priority 2020, dated 2026).
Entries after “also recorded” stand apart in the source; their conditions may differ.

Key:
[1] = tested on: mice; test: Tail suspension test; assay type: in vivo, mouse
Procedure: Tail Suspension Test: Mouse activity was recorded using a 60 Hz web camera. Struggling activity was quantified for minutes 2-10. […] Illumination began 30 seconds before tails were secured with tape and suspended from the beam. Mice were excluded if they climbed on their own tails.

[2] = tested on: retrosplenial cortex (RSP); test: Widefield imaging of cortical activity in GCaMP6s mice
Excerpt: We recorded multiregional neuronal activity by leveraging widefield microscopy, a cleared skull preparation, and atlas registration in GCaMP6s-expressing mice (FIGS. 1A-1C)^6,8,15.
As described^8, mice were anesthetized with isoflurane, the scalp was removed, the skull cleaned and dried, and a custom head-plate was cemented to contacts over the cerebellum and in front of the olfactory bulb. The skull was then covered in a thin layer of cyanoacrylate glue (Apollo 2000, Cyberbond), clear dental acrylic (Ortho-Jet, Lang Dental), and clear nail polish (Electron Microscopy Services). […] (0.1 mg/kg) was injected subcutaneously for pain management. […] Imaging was performed on a custom-built fluorescence microscope designed for high light collection efficiency and large field of view. […] Alternating 410 nm and 488 nm illumination for non-Ca^2+ dependent artifact removal was controlled using a microcontroller (Arduino) slaved to the frame output trigger of the camera.
Each trace (corresponding to either a fiber photometry signal, a cellular two-photon signal, a widefield regional centroid, a widefield pixel, an sEEG trace, or a smoothed spike rate Neuropixels trace) was z-scored, and the power spectral density (PSD) was then estimated using Welch's method (pwelch( ) in Matlab), with a window size of 10*fs (15*fs for human sEEG) where fs is the sampling rate of the signal. The average band power within a specified band (i.e. 1-3 Hz) was then computed by integrating the PSD estimate (bandpower in Matlab). […] Unless otherwise indicated, the PSD was computed across the time window from minutes 10 to 11 post-injection.

[3] = tested on: mice; test: Observation for seizure-like behavior after dissociative doses; assay type: in vivo, mouse; conditions: dissociative doses of ketamine
Excerpt: One characteristic of seizures is increased synchrony. While the ketamine-induced rhythm involved increased synchrony in neuronal firing, the initiation, spread, maintenance/termination, and behavior were distinguishable from typical seizures.

[4] = tested on: retrosplenial cortex (RSP); test: Fiber photometry and widefield imaging of RSP, dose comparison; assay type: in vivo, mouse
Excerpt: A 405 nm and 470 nm LED illumination (Thorlabs) was combined (425 nm longpass, Thorlabs DMLP425) and coupled into a fiber optic patch cord (400 μm diameter, 0.48 NA, Doric Lenses) using a longpass dichroic (505 nm, Thorlabs DMLP505) and a fixed-focused coupler/collimator with a standard FC connector (F240FC-A, NA 0.51, f=7.9 mm)^47,48. Each illumination channel was frequency modulated using the sync output from a lock-in amplifier (SR810 DSP, Stanford Research Systems). GCaMP fluorescence was collected through the same patchcord and delivered through a bandpass emission filter (Semrock, FF01-520/35) onto a NewFocus 2151 femtowatt silicon photoreceiver (Newport, DC Low mode). […]
Analysis was performed using custom MATLAB (MathWorks) scripts. […] For quantification, activity traces were extracted from points centered in five cortical regions (visual, somatosensory, parietal, motor, retrosplenial) on the left hemisphere of the brain. […]
Each trace (corresponding to either a fiber photometry signal, a cellular two-photon signal, a widefield regional centroid, a widefield pixel, an sEEG trace, or a smoothed spike rate Neuropixels trace) was z-scored, and the power spectral density (PSD) was then estimated using Welch's method (pwelch( ) in Matlab), with a window size of 10*fs (15*fs for human sEEG) where fs is the sampling rate of the signal. […]

[5] = tested on: humans; conditions: human; cited from earlier work
[6] = tested on: mice; test: Open field test; assay type: in vivo, mouse; conditions: 5 min session, compared with saline
Excerpt: Open Field Test: Mice were placed in an evenly illuminated 50 cm×50 cm open field test box. Mouse position was captured using a webcam and Viewer software (Biobserve).

[7] = tested on: mice; test: Righting reflex assay; assay type: in vivo, mouse
Excerpt: Righting Reflex Assay: Mice were held at the neck and tail, rotated to supine position on a flat surface, and quickly released. Time to right was quantified as moment of release to moment when all 4 legs touched the ground. A five second threshold was used to classify righting success (less than 5 seconds) from failure (more than 5 seconds). […] Illumination began for 30 seconds, and then the mouse was swiftly inverted onto the flat surface.

[8] = tested on: retrosplenial cortex (RSP); test: Retrosplenial gene disruption (HCN1, GRIN1) and fiber photometry; assay type: in vivo, mouse
Procedure: A 405 nm and 470 nm LED illumination (Thorlabs) was combined (425 nm longpass, Thorlabs DMLP425) and coupled into a fiber optic patch cord (400 μm diameter, 0.48 NA, Doric Lenses) using a longpass dichroic (505 nm, Thorlabs DMLP505) and a fixed-focused coupler/collimator with a standard FC connector (F240FC-A, NA 0.51, f=7.9 mm)^47,48. Each illumination channel was frequency modulated using the sync output from a lock-in amplifier (SR810 DSP, Stanford Research Systems).
Analysis was performed using custom MATLAB (MathWorks) scripts. Widefield imaging videos were registered to a 2D top-projection atlas generated from the annotated Allen Brain Atlas volume, version CCFv2, in MATLAB (MathWorks), using an affine transformation computed from four manually selected control points. Each video was DF/F normalized, using the median for each pixel over the entire time series as F. The 410 nm channel was then temporally smoothed using a moving average (width=400 ms). The smoothed 410 nm DF/F signal for each pixel was regressed onto the 488 nm DF/F signal for the corresponding pixel, and the regression coefficients were used to scale the 410 nm channel to the 488 nm channel. This scaled 410 nm DF/F signal was then subtracted from the 488 nm DF/F signal to produce a normalized signal for each pixel. For quantification, activity traces were extracted from points centered in five cortical regions (visual, somatosensory, parietal, motor, retrosplenial) on the left hemisphere of the brain. The video data was Gaussian smoothed spatially (radius=2 pixels). Similarly, for fiber photometry recordings, the 410 nm signal was regressed onto the 488 nm signal, the 410 nm signal was scaled by the regression coefficients, and then subtracted from the 488 nm signal.
Stereotaxic Surgery: Adult male and female HCN1^f/f, NR1^f/f, or wildtype C57/BI6 were injected bilaterally in two retrosplenial locations (AP −3.1 and −3.4, ML+/−0.5, DV −0.5) with 1 uL of AAV8-Ef1 a-mCherry-IRES-Cre (titer 5E11) and AAVdj-Ef1a-DIO-GCaMP6m (titer 1E13). A 400-micron optical fiber was implanted over one injection location. […]

[9] = tested on: mouse; conditions: cited from earlier work
[10] = tested on: mice; test: Resident-intruder social interaction assay; assay type: in vivo, mouse; conditions: ketamine, both channel-knockouts vs wild-type
Procedure: Social Interaction Assay: Resident-intruder social interaction was recorded for two minutes. Interactions were defined as close physical proximity behaviors, including sniffing, touching, and following. […] Illumination began 30 seconds before the same-sex intruder mouse was introduced.

[11] = tested on: brain regions correlated with RSP; test: Simultaneous recording from four Neuropixels probes with i.p. drug delivery
Procedure: Mice were anesthetized with isoflurane, carefully leveled in a stereotaxic apparatus and their scalp and periosteum were removed. A 3% hydrogen peroxide in saline solution was used to clean the surface of the skull. A custom stainless steel headbar was leveled on the skull and attached using clear dental cement. After the cement had dried, targeted probe entry sites were stereotaxically marked on the cement layer with a permanent marker (Day 1: “mPFC”, 2.3AP, 0.6ML; “somatosensory”, −0.7AP, −4.0ML; “retrosplenial”, −2AP, −1 ML; “subiculum”, −3.5AP, 2.14ML; Day 2: “OFC”: 2.5AP, 1.5ML; “mPFC”: 2.3AP, −0.6ML; “retrosplenial”, −2AP, 1ML; “thalamus”, −1.5AP, −1.7ML). In part, they were selected to cover areas with known connectivity to the retrosplenial cortex. A 2 mm long insulated platinum-iridium wire was implanted centrally over the cerebellum, with the last several hundred microns bared to serve as an electrical reference.
Mice were acclimated to head fixation and the recording rig over several days before recording. Several hours before recording, mice were anesthetized for approximately 30 minutes each while small 1 mm craniotomies were made over four pre-marked areas. Craniotomies were kept clean of bone fragments and made such that bleeding was minimized. The skull was covered with a pool of saline and with Quik-Cast to protect and keep moist craniotomies before recording. Mice recovered in their homecages before recording. Immediately prior to recording set up, mice were very briefly anesthetized with isoflurane and implanted with an IV catheter system (BD Saf-T-Intima Closed IV Catheter System: 22G×3/4′, containing an integrated Y adaptor and safety lock) to their intraperitoneal cavity and affixed with glue. […] While still anesthetized, mice were headfixed and tubing was secured stably to a custom mouse holder by tape. Quik-Cast was removed from the skull, and craniotomies were briefly cleaned before being submerged in a pool of saline. […] The four acquisitions were synchronized using a common squarewave signal recorded for all probes and aligned to the nearest pulse edge. […]

For CNC1(c2ccccc2Cl)CCCCC1=O (centres unmarked) [ketamine], the tail-suspension escape responses ([1]; ketamine >=25 mg/kg) was “similarly suppressed tail-suspension escape responses”, the tail suspension-escape behavior ([1]; ketamine, both channel-knockouts vs wild-type) was “modestly-recovered tail suspension-escape behavior” and the “magnitude of RSP rhythm on repeated days” value ([2]; five consecutive days) was “exhibited similar magnitude across five consecutive days”. For the same compound, the “1-3 Hz oscillation localized to retrosplenial cortex (RSP), widefield imaging” value ([2]; i.p. injection, ketamine 50 mg/kg) was “a 1-3 Hz oscillation emerged in retrosplenial cortex (RSP), but not in any other cortical region”, the “seizure-like signs (rigidity, convulsive movements, absence-like states, salivation/rearing/falling)” value [3] was “no rigidity, convulsive movements, absence-like states, or salivation/rearing/falling were observed” and the “1-3 Hz RSP oscillation” value ([4]; ketamine 13 mg/kg, listed as Ketamine) was “not 13 mg/kg”. For the same compound, the “1-3 Hz RSP oscillation” value ([4]; ketamine 25 mg/kg) was “rhythm at 25 mg/kg”, the “dose at which humans consistently report potent dissociation” value [5] was 2 to 3 mg/kg and the “typical dose for anti-depressant effects” value [5] was 0.3 to 1 mg/kg. For the same compound, the open-field locomotion velocity [6] was “decreased velocity”, the “consciousness (spontaneous ambulation, response to external stimuli)” value ([7]; ketamine >=25 mg/kg, subanesthetic) was “consciousness was maintained” and the “righting of postural inversion” value ([7]; ketamine, knockout and wild-type mice) was “all mice successfully-righted postural inversion”. The “ketamine-induced RSP oscillation” value ([8]; local GRIN1 (NMDAR) knockout in RSP) was “significantly diminished; also recorded: partially attenuated; also recorded: Reduced ketamine-induced oscillation-power”, the “ketamine-induced RSP oscillation” value ([8]; local HCN1 knockout in RSP) was “significantly diminished; also recorded: selectively abolished both the ketamine-induced rhythm and dissociation-like behavioral effects; also recorded: no longer induced the deep retrosplenial rhythm; also recorded: Reduced ketamine-induced oscillation-power” and the “ketamine-induced RSP oscillation” value ([8]; wild-type) was “preserved in wild-type”. The “typical dose for anti-depressant effects” value [9] was 3 to 10 mg/kg, the resident-intruder social interactions [10] was “modestly-recovered” and the “correlations of brain regions with RSP” value ([11]; 8-12 min after 50 mg/kg ketamine i.p.) was “correlations with RSP were reduced”. For the same compound, the “correlation of laterodorsal and anteroventral thalamus with each other and RSP” value ([11]; subanesthetic ketamine) was “became more-strongly correlated to each other and RSP” and the “rhythmicity of specific subcortical regions” value ([11]; subanesthetic ketamine) was “exhibiting increased rhythmicity”.
